Tested on: KRAS PDC multicell spheroid viability
Assay: Anticancer human tumor 521955-158-R6-J3-PDC patient-derived pancreatic carcinoma cell line growth inhibition [KRAS2]
Details: for IC50: curve of first compound; for viability, T/C: stronger effect = lower value; active = viability on the fitted dose curve at most 10% of control; inactive = the rest
Procedure, shortened: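 KRAS-mutant tumor cells were grown as spheroids with HUVEC endothelial cells and human MSCs as stroma. Targeted agents were tested alone and with KRAS pathway inhibitors. Doses started at or near clinical Cmax, or 10 microM, descending half-log.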

[1] = second compound 0.1 µM, first compound 0.000316 µM
[2] = second compound 0.1 µM, first compound 0.001 µM
[3] = second compound 0.1 µM, first compound 0.00316 µM
[4] = second compound 0.1 µM, first compound 0.01 µM
[5] = second compound 0.1 µM, first compound 0.0316 µM
[6] = second compound 0.316 µM, first compound 0.000316 µM
[7] = second compound 0.316 µM, first compound 0.001 µM
[8] = second compound 0.316 µM, first compound 0.00316 µM
[9] = second compound 0.316 µM, first compound 0.01 µM
[10] = second compound 0.316 µM, first compound 0.0316 µM
[11] = second compound 1 µM, first compound 0.000316 µM
[12] = second compound 1 µM, first compound 0.001 µM
[13] = second compound 1 µM, first compound 0.00316 µM
[14] = second compound 1 µM, first compound 0.01 µM
[15] = second compound 1 µM, first compound 0.0316 µM
[16] = second compound 3.16 µM, first compound 0.000316 µM
[17] = second compound 3.16 µM, first compound 0.001 µM
[18] = second compound 3.16 µM, first compound 0.00316 µM
[19] = second compound 3.16 µM, first compound 0.01 µM
[20] = second compound 3.16 µM, first compound 0.0316 µM
[21] = second compound 10 µM, first compound 0.000316 µM
[22] = second compound 10 µM, first compound 0.001 µM
[23] = second compound 10 µM, first compound 0.00316 µM
[24] = second compound 10 µM, first compound 0.01 µM
[25] = second compound 10 µM, first compound 0.0316 µM
[26] = second compound 0.1 µM, first compound 0.1 µM
[27] = second compound 0.316 µM, first compound 0.1 µM
[28] = second compound 1 µM, first compound 0.1 µM
[29] = second compound 3.16 µM, first compound 0.1 µM
[30] = second compound 10 µM, first compound 0.1 µM
[31] = second compound 0.1 µM, first compound 0.316 µM
[32] = second compound 0.1 µM, first compound 1 µM
[33] = second compound 0.1 µM, first compound 3.16 µM
[34] = second compound 0.1 µM, first compound 10 µM
[35] = second compound 0.316 µM, first compound 0.316 µM
[36] = second compound 0.316 µM, first compound 1 µM
[37] = second compound 0.316 µM, first compound 3.16 µM
[38] = second compound 0.316 µM, first compound 10 µM
[39] = second compound 1 µM, first compound 0.316 µM
[40] = second compound 1 µM, first compound 1 µM
[41] = second compound 1 µM, first compound 3.16 µM
[42] = second compound 1 µM, first compound 10 µM
[43] = second compound 3.16 µM, first compound 0.316 µM
[44] = second compound 3.16 µM, first compound 1 µM
[45] = second compound 3.16 µM, first compound 3.16 µM
[46] = second compound 3.16 µM, first compound 10 µM
[47] = second compound 10 µM, first compound 0.316 µM
[48] = second compound 10 µM, first compound 1 µM
[49] = second compound 10 µM, first compound 3.16 µM
[50] = second compound 10 µM, first compound 10 µM
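Also: drug exposure lasted seven days.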
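For viability, T/C in this document: 100% = DMSO vehicle wells and lower means fewer viable cells.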

CC(=O)Nc1cccc(-n2c(=O)n(C3CC3)c(=O)c3c(Nc4ccc(I)cc4F)n(C)c(=O)c(C)c32)c1 + CNCc1ccccc1-c1csc(C(C)Nc2nc(C)nc3cc(OC)c(OC)cc23)c1
inactive: viability, T/C (second compound 0.1 µM, first compound 0.0001 µM) 84.3% | viability, T/C [1] 83.3% | viability, T/C [2] 88.9% | viability, T/C [3] 75% | viability, T/C [4] 60.7% | viability, T/C [5] 37.4% | viability, T/C (second compound 0.316 µM, first compound 0.0001 µM) 70.3% | viability, T/C [6] 90.2% | viability, T/C [7] 80.8% | viability, T/C [8] 72.4% | viability, T/C [9] 60% | viability, T/C [10] 33.2% | viability, T/C (second compound 1 µM, first compound 0.0001 µM) 69.1% | viability, T/C [11] 76.6% | viability, T/C [12] 65.9% | viability, T/C [13] 58.4% | viability, T/C [14] 35.3% | viability, T/C [15] 12.3%
0.00473 µM: IC50 (second compound 1 µM)
active: viability, T/C (second compound 3.16 µM, first compound 0.0001 µM) 1.97% | viability, T/C [16] 0.17% | viability, T/C [17] 7.16% | viability, T/C [18] 2.18% | viability, T/C [19] 8.31% | viability, T/C [20] 1.89% | viability, T/C (second compound 10 µM, first compound 0.0001 µM) 2.4% | viability, T/C [21] 1.9% | viability, T/C [22] 0.16% | viability, T/C [23] 0.16% | viability, T/C [24] 4.06% | viability, T/C [25] 0.45%
0.0167 µM: IC50 (second compound 0.1 µM)
0.0151 µM: IC50 (second compound 0.316 µM)
< 0.0001 µM: IC50 (second compound 3.16 µM) | IC50 (second compound 10 µM)

CC(C)n1nc(-c2ccc3oc(N)nc3c2)c2c(N)ncnc21 + CNCc1ccccc1-c1csc(C(C)Nc2nc(C)nc3cc(OC)c(OC)cc23)c1
< 0.000316 µM: IC50 (second compound 3.16 µM) | IC50 (second compound 10 µM)
inactive: viability, T/C [1] 88.1% | viability, T/C [2] 89.9% | viability, T/C [3] 81.2% | viability, T/C [4] 71.2% | viability, T/C [5] 63.3% | viability, T/C [26] 46.2% | viability, T/C [6] 82.3% | viability, T/C [7] 81.1% | viability, T/C [8] 74.6% | viability, T/C [9] 61.1% | viability, T/C [10] 54.3% | viability, T/C [27] 42.1% | viability, T/C [11] 78.5% | viability, T/C [12] 73% | viability, T/C [13] 73.6% | viability, T/C [14] 64.2% | viability, T/C [15] 54.6% | viability, T/C [28] 47.2%
0.0648 µM: IC50 (second compound 1 µM)
active: viability, T/C [16] 1.65% | viability, T/C [17] 1.07% | viability, T/C [18] 1.66% | viability, T/C [19] 1.02% | viability, T/C [20] 1.57% | viability, T/C [29] 1.6% | viability, T/C [21] 0.75% | viability, T/C [22] 0.17% | viability, T/C [23] 0.16% | viability, T/C [24] 0.15% | viability, T/C [25] 0.16% | viability, T/C [30] 0.24%
0.0413 µM: IC50 (second compound 0.316 µM)
0.0772 µM: IC50 (second compound 0.1 µM)

COc1cc(Nc2ncc3c(n2)-c2ccc(Cl)cc2C(c2c(F)cccc2OC)=NC3)ccc1C(=O)O + CNCc1ccccc1-c1csc(C(C)Nc2nc(C)nc3cc(OC)c(OC)cc23)c1
inactive: viability, T/C [5] 95.5% | viability, T/C [26] 89.9% | viability, T/C [31] 94.6% | viability, T/C [32] 101% | viability, T/C [33] 113% | viability, T/C [34] 89.4% | viability, T/C [10] 104% | viability, T/C [27] 84.6% | viability, T/C [35] 90.9% | viability, T/C [36] 88.7% | viability, T/C [37] 90.7% | viability, T/C [38] 104% | viability, T/C [15] 93.6% | viability, T/C [28] 73.3% | viability, T/C [39] 86.7% | viability, T/C [40] 78.2% | viability, T/C [41] 87.3% | viability, T/C [42] 88.6%
> 10 µM: IC50 (second compound 0.1 µM) | IC50 (second compound 0.316 µM) | IC50 (second compound 1 µM)
active: viability, T/C [20] 1.45% | viability, T/C [29] 0.8% | viability, T/C [43] 0.53% | viability, T/C [44] 1.47% | viability, T/C [45] 2.38% | viability, T/C [46] 2.86% | viability, T/C [25] 0.82% | viability, T/C [30] 1.21% | viability, T/C [47] 0.68% | viability, T/C [48] 0.35% | viability, T/C [49] 0.3% | viability, T/C [50] 0.59%
< 0.0316 µM: IC50 (second compound 3.16 µM) | IC50 (second compound 10 µM)

COc1cc2nccc(Oc3ccc(NC(=O)C4(C(=O)Nc5ccc(F)cc5)CC4)cc3)c2cc1OC + CNCc1ccccc1-c1csc(C(C)Nc2nc(C)nc3cc(OC)c(OC)cc23)c1
inactive: viability, T/C [5] 91.1% | viability, T/C [26] 102% | viability, T/C [31] 101% | viability, T/C [32] 108% | viability, T/C [33] 125% | viability, T/C [34] 133% | viability, T/C [10] 94.3% | viability, T/C [27] 92.9% | viability, T/C [35] 90.2% | viability, T/C [36] 87.7% | viability, T/C [37] 119% | viability, T/C [38] 109% | viability, T/C [15] 80.1% | viability, T/C [28] 75.1% | viability, T/C [39] 79.3% | viability, T/C [40] 83.9% | viability, T/C [41] 32.2% | viability, T/C [42] 38.4% | viability, T/C [25] 13.4%
> 10 µM: IC50 (second compound 0.1 µM) | IC50 (second compound 0.316 µM)
2.16 µM: IC50 (second compound 1 µM)
active: viability, T/C [20] 0.94% | viability, T/C [29] 0.35% | viability, T/C [43] 0.42% | viability, T/C [44] 0.24% | viability, T/C [45] 0.24% | viability, T/C [46] 0.24% | viability, T/C [30] 0.23% | viability, T/C [47] 0.2% | viability, T/C [48] 0.21% | viability, T/C [49] 0.2% | viability, T/C [50] 0.28%
< 0.0316 µM: IC50 (second compound 3.16 µM) | IC50 (second compound 10 µM)

From PubChem BioAssay AID1963864 (Molecular Pharmacology Branch, DTP, NCI, 2024)
